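All cell lines were grown in 96-well plates and treated with compound for 48 hours. The concentration for 50% growth inhibition is given as GI50.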 Active and inactive are the calls of the source. Cut-off read from the data, not from the text of the source: active = GI50 up to about 1.1 µM and inactive = higher.
Legend:
Test in all cases: DTP human tumour cell line panel, 48 h
[1] = tested on: A498
[2] = tested on: RXF 393
[3] = tested on: KM12
[4] = tested on: IGROV-1
[5] = tested on: OVCAR-3
[6] = tested on: BT-549
[7] = tested on: K562
[8] = tested on: HCT-116
[9] = tested on: HOP-92
[10] = tested on: SN12C
[11] = tested on: T47D
[12] = tested on: MDA-MB-231
[13] = tested on: CCRF-CEM
[14] = tested on: SK-MEL-5
[15] = tested on: MDA-MB-435
[16] = tested on: 786-0
[17] = tested on: MCF7
[18] = tested on: PC-3
[19] = tested on: TK-10

| SMILES | GI50 [1] | GI50 [2] | GI50 [3] | GI50 [4] | GI50 [5] | GI50 [6] | GI50 [7] | GI50 [8] | GI50 [9] | GI50 [10] | GI50 [11] | GI50 [12] | GI50 [13] | GI50 [14] | GI50 [15] | GI50 [16] | GI50 [17] | GI50 [18] | GI50 [19] |
| --- | --- | --- | --- | --- | --- | --- | --- | --- | --- | --- | --- | --- | --- | --- | --- | --- | --- | --- | --- |
| N=c1oc2ccccc2cc1C(=O)Nc1ccccn1 | > 100 µM (inactive) | > 100 µM (inactive) | 56.5 µM (inactive) | 51.9 µM (inactive) | > 100 µM (inactive) | > 100 µM (inactive) | > 100 µM (inactive) | 51.9 µM (inactive) | > 100 µM (inactive) | > 100 µM (inactive) | 43.7 µM (inactive) | > 100 µM (inactive) | 44.8 µM (inactive) | > 100 µM (inactive) | > 100 µM (inactive) | 37.8 µM (inactive) | – | – | – |
| N/C(=N\c1ccc(Cl)cc1)NS(=O)(=O)c1ccc(S(=O)(=O)c2ccccc2)s1 | 17.4 µM (inactive) | 53.8 µM (inactive) | 22.8 µM (inactive) | 13.8 µM (inactive) | 25.4 µM (inactive) | 17.6 µM (inactive) | 18.8 µM (inactive) | 15.4 µM (inactive) | 19.7 µM (inactive) | 17.5 µM (inactive) | 17 µM (inactive) | 12.9 µM (inactive) | – | 15.8 µM (inactive) | – | 19.9 µM (inactive) | 17.2 µM (inactive) | 14.2 µM (inactive) | 21.2 µM (inactive) |
| COc1ccc(/C=C2\S/C(=N/Nc3nc(-c4ccccc4)cs3)NC2=O)cc1OC | – | 4.5 µM (inactive) | 24.5 µM (inactive) | 12.6 µM (inactive) | 15.9 µM (inactive) | 24.5 µM (inactive) | – | 17.1 µM (inactive) | 12.6 µM (inactive) | 17.8 µM (inactive) | – | 21.9 µM (inactive) | 4.1 µM (inactive) | 15.5 µM (inactive) | 25.7 µM (inactive) | 28.4 µM (inactive) | 19.2 µM (inactive) | 17.4 µM (inactive) | 20.5 µM (inactive) |
| CC(C)(C)N/C(N)=N/C#N | – | > 100 µM (inactive) | – | > 100 µM (inactive) | – | > 100 µM (inactive) | > 100 µM (inactive) | > 100 µM (inactive) | > 100 µM (inactive) | > 100 µM (inactive) | – | > 100 µM (inactive) | > 100 µM (inactive) | > 100 µM (inactive) | > 100 µM (inactive) | > 100 µM (inactive) | > 100 µM (inactive) | > 100 µM (inactive) | > 100 µM (inactive) |
| C=C(C)C1Cc2c(cc(OC)c3c(=O)c4cccc(O)c4oc23)O1 (centres undefined) | – | 19.4 µM (inactive) | 46.5 µM (inactive) | 18.4 µM (inactive) | – | 17.9 µM (inactive) | > 100 µM (inactive) | 24.8 µM (inactive) | – | 28.6 µM (inactive) | 16.6 µM (inactive) | 23.9 µM (inactive) | 74.6 µM (inactive) | 16.5 µM (inactive) | – | 18.9 µM (inactive) | 0.024 µM (active) | 38.2 µM (inactive) | 19.9 µM (inactive) |
| C=CCNC1=C2C[C@@H](C)C[C@@H](OC)[C@H](OC(=O)CCN)[C@H](C)/C=C(\C)[C@@H](OC(N)=O)[C@H](OC)/C=C\C=C(/C)C(=O)NC(=CC1=O)C2=O | 3.61 µM (inactive) | 4.66 µM (inactive) | 1.79 µM (inactive) | 4.74 µM (inactive) | 2.45 µM (inactive) | 7.45 µM (inactive) | 3.99 µM (inactive) | 3.53 µM (inactive) | 4.49 µM (inactive) | 2.34 µM (inactive) | 4.89 µM (inactive) | 5.19 µM (inactive) | – | 4.12 µM (inactive) | 2.98 µM (inactive) | 4.38 µM (inactive) | 0.703 µM (active) | – | 2.17 µM (inactive) |
| COc1cccc2c1OC(c1ccc(C#N)cc1)C([N+](=O)[O-])=C2 (centres undefined) | 1.84 µM (inactive) | 1.58 µM (inactive) | – | 1.92 µM (inactive) | 2.02 µM (inactive) | 1.49 µM (inactive) | 1.21 µM (inactive) | 1.48 µM (inactive) | 1.62 µM (inactive) | 2.04 µM (inactive) | – | 1.56 µM (inactive) | 1.58 µM (inactive) | 1.53 µM (inactive) | 1.39 µM (inactive) | 0.482 µM (active) | 1.5 µM (inactive) | 1.88 µM (inactive) | 3.11 µM (inactive) |
| C[C@@H]1C(=O)O[C@H]1[C@H](O)CO | > 100 µM (inactive) | > 100 µM (inactive) | > 100 µM (inactive) | – | > 100 µM (inactive) | > 100 µM (inactive) | – | > 100 µM (inactive) | 63.1 µM (inactive) | > 100 µM (inactive) | > 100 µM (inactive) | – | > 100 µM (inactive) | > 100 µM (inactive) | > 100 µM (inactive) | > 100 µM (inactive) | > 100 µM (inactive) | > 100 µM (inactive) | > 100 µM (inactive) |
| CC(C)(C)OC(=O)n1c2ccccc2c2c(=O)nc(N3CCCCC3)sc21 | > 100 µM (inactive) | – | > 100 µM (inactive) | > 100 µM (inactive) | > 100 µM (inactive) | > 100 µM (inactive) | > 100 µM (inactive) | – | > 100 µM (inactive) | > 100 µM (inactive) | > 100 µM (inactive) | > 100 µM (inactive) | > 100 µM (inactive) | > 100 µM (inactive) | > 100 µM (inactive) | > 100 µM (inactive) | – | > 100 µM (inactive) | > 100 µM (inactive) |
| CN(C)CCOC1(Cc2ccc(Cl)cc2Cl)CCC(C(C)(C)C)CC1 (centres undefined) | 2.88 µM (inactive) | – | 1.77 µM (inactive) | 3.44 µM (inactive) | 1.71 µM (inactive) | 1.63 µM (inactive) | 1.6 µM (inactive) | 1.6 µM (inactive) | – | 1.65 µM (inactive) | – | 7 µM (inactive) | 1.86 µM (inactive) | 1.56 µM (inactive) | 1.54 µM (inactive) | 1.83 µM (inactive) | 2.01 µM (inactive) | 1.48 µM (inactive) | 2.62 µM (inactive) |
| O=C(Nc1ccccc1Cl)c1cc(S(=O)(=O)Nc2n[nH]c(=O)n2-c2ccccc2)c(S)cc1Cl | > 100 µM (inactive) | > 100 µM (inactive) | > 100 µM (inactive) | > 100 µM (inactive) | > 100 µM (inactive) | > 100 µM (inactive) | – | > 10 µM (inactive) | > 100 µM (inactive) | > 100 µM (inactive) | > 100 µM (inactive) | > 100 µM (inactive) | > 100 µM (inactive) | > 100 µM (inactive) | > 100 µM (inactive) | > 100 µM (inactive) | > 100 µM (inactive) | – | – |
| CC(=O)OCC1OC(c2nnc(C)o2)=CC(OC(C)=O)C1OC(C)=O (centres undefined) | > 100 µM (inactive) | > 100 µM (inactive) | > 100 µM (inactive) | > 100 µM (inactive) | > 100 µM (inactive) | > 100 µM (inactive) | > 100 µM (inactive) | > 100 µM (inactive) | – | > 100 µM (inactive) | – | > 100 µM (inactive) | > 100 µM (inactive) | > 100 µM (inactive) | > 100 µM (inactive) | > 100 µM (inactive) | > 100 µM (inactive) | > 100 µM (inactive) | > 100 µM (inactive) |

— ChEMBL document CHEMBL1201862, “PubChem BioAssay data set” (2004)
